# Experimental data: patent US20250280826A1, “PLANT GROWTH PROMOTER” (KAO CORPORATION, priority 2022, published 2025)
# Assay type: physicochemical
# Conditions: in 100 μL of isobutyl alcohol
# Method: The amount of BHT dissolved in 100 μL of isobutyl alcohol was changed. […] For other solvents, solubility was similarly confirmed at a ratio of BHT:solvent=1:4. […] The reagents used were those manufactured by FUJIFILM Wako Pure Chemical Corporation.
substance,measurement,value
dibutylhydroxytoluene [BHT],amount of BHT uniformly dissolved,up to 25 mg
